How the values were obtained:
[1] = target: T1, gastric histamine H2 receptor (Cavia porcellus, UniProt P47747); design: species or system guinea pig; conditions: for IC50: concentration inhibiting by 50% the secretion induced by histamine, isolated stomach mucous membrane of the Guinea pig, CM 57755 as dihydrochloride; for IC50 m/IC50 o: ratio gastric IC50 / cardiac IC50
T1 construct: isolated stomach mucous membrane of the Guinea pig; from tissue; host or cells: isolated guinea pig stomach mucous membrane
T1 sequence (P47747 whole entry): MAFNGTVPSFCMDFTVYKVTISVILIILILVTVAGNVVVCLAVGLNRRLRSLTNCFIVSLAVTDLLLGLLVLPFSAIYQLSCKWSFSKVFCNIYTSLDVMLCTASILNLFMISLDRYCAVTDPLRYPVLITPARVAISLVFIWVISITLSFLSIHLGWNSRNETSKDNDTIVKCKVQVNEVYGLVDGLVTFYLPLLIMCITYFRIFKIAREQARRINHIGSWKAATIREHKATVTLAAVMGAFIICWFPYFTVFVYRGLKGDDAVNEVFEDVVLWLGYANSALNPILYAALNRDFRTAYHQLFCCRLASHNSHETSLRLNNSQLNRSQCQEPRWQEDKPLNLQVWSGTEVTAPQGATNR

[2] = target: T2, cardiac histamine H2 receptor (Cavia porcellus, UniProt P47747); conditions: concentration inhibiting by 50% the increase in frequency induced by histamine; isolated right atrium of the Guinea pig; CM 57755 as dihydrochloride
T2 construct: isolated right atrium of the Guinea pig; from tissue; host or cells: isolated guinea pig right atrium
T2 sequence (P47747 whole entry): as above

cardiac H2 receptors = conditions: treatment of ulcerous disease; Clinica Terapeutica, 1981, 96, 81-91; cited from earlier work
[3] = tested on: hypersecretion provoked by the dimaprit; assay: antisecretory activity in the cat having a gastric fistula, dimaprit as hypersecretor (Emas et al.); format: in vivo; conditions: dimaprit 640 mcg/kg/hour
Experimental: The antisecretory activity of the products of the present invention was assessed in the cat having a gastric fistula according to the method of Emas et al.(Gastroenterology, 1969; 39, 771) using, as hypersecretor, dimaprit at the dose of 640 mcg/kg/hour.

[4] = tested on: gastric histamine H2 receptors; assay: antisecretory activity: antagonism to the hypersecretion provoked by histamine in the rat (Ghosh and Schild); format: in vivo; conditions: intravenous route, histamine infusion equivalent to 15 mcmol/kg/hour
From the text: The antagonistic activity of the products of the present invention towards the gastric histamine H2 receptors was confirmed in the test of the antisecretory activity based on the antagonism to the hypersecretion provoked by histamine in the rat according to the method of Ghosh and Schild (Brit. J. Pharmacol.1958; 13, 54). According to this test, a gastric acid hypersecretion is induced by intravenous infusion of a submaximal dose equivalent to 15 mcmol/kg/hour and the gastric secretion is measured by perfusion of a physiological solution at a constant speed in the stomach of the animal.

[5] = acute toxicity (LD50) in the rat; conditions: in vivo, intravenous route

| Structure (SMILES) | IC50 [1] | IC50 m/IC50 o [1] | IC50 [2] | secondary effects (block of the cardiac H2 receptors may be the cause) (cardiac H2 receptors) | duration of action after the suspension of the treatment [3] | dose inhibiting by 50% the hypersecretion provoked by histamine [4] | affinity for the gastric H2 receptors versus the cardiac H2 receptors ([1]; conclusion from the IC50 m/IC50 o ratio) | selectivity of antagonising gastric hypersecretion versus the positive chronotropic action provoked by histamine ([1]; conclusion from the IC50 m/IC50 o ratio, relative to the reference compounds) | activity compared with that of cimetidine ([3]; on molar basis) | antagonism of the hypersecretion provoked by the dimaprit ([3]; venous perfusion and intragastric route) | LD50 [5] |
| --- | --- | --- | --- | --- | --- | --- | --- | --- | --- | --- | --- |
| CNC(=C[N+](=O)[O-])NCCSCc1ccc(CN(C)C)o1 [ranitidine, reference compound] | 0.65 µM | 7.6 | 86 nM |  |  |  |  |  |  |  |  |
| CNC(=NC#N)NCCSCc1nc[nH]c1C [cimetidine, 2-cyano-1-methyl-3-[2[(5-methylimidazol-4-yl)methylthio]ethyl]guanidine, reference compound] |  |  |  | bradycardia and of asystolia | more transient |  |  |  |  |  |  |
| CN(C)Cc1ccc(CSCCNC(=O)c2ccc[n+]([O-])c2)o1.Cl.Cl [CM 57755, N-[2-(5-dimethylaminomethylfuran-2-ylmethylthio)ethyl]-3-pyridinecarboxamide 1-oxide dihydrochloride] | 9.2 µM | 2.13 | 4300 nM |  | long duration of action after the suspension of the treatment | 0.9 mg/kg | greater affinity for the gastric H2 receptors than for the cardiac H2 receptors | capable of antagonising gastric hypersecretion more selectively than the positive chronotropic action provoked by histamine | comparable, on molar basis, to that of the cimetidine | antagonises in dose-dependent manner | 300 mg/kg |
